In patent publication US20250320194A1, “PHARMACEUTICALLY ACCEPTABLE SALT AND CRYSTAL FORM OF FUSED PYRIDINE RING DERIVATIVE AND PREPARATION METHOD THEREFOR” (Jiangsu Hengrui Pharmaceuticals Co., Ltd., priority 2021, published 2025):

What was measured:
[1] = Hygroscopicity of salt crystal forms (DVS, 25° C.); format: physicochemical; conditions: for Hygroscopicity 0.0% RH-95.0% RH / Hygroscopicity 20.0% RH-80.0% RH: DVS, 25° C.; for Crystal form: after DVS
Protocol: The test adopts SMS DVS Advantage, at 25° C., with a humidity range of 0 to 95% and a step of 10%. The judgment standard is that the dM/dT of each gradient mass change is less than 0.002%, TMAX is 360 minutes, and the cycle is two times. • 5. Cation chromatography • Instrument model: DIONEX AQUION ion chromatograph, USA • Detection method: conductivity; separation column: IonPac CS16-CG16 • Eluent: MSA 20Mm • Flow rate: 1.0 ml/min • 6. Anion chromatography • Instrument model: DIONEX INTEGRION HPIC ion chromatograph, USA • Detection method: conductivity; separation column: DionexIonPac™-AS11-HC • Eluent: EGC-500-KOH • Flow rate: 1.5 ml/min
Using Surface Measurement Systems advantage, at 25° C., the humidity starts from 50%, the humidity range is 0% to 95%, the step is 10%. The judgment standard was that the dM/dT of each gradient mass change is less than 0.002%, TMAX360 min, and the cycle was two times. The hygroscopicity of different salt crystal forms of the compound of formula I was investigated respectively.

[2] = Long-term/accelerated stability
[3] = Stability under influencing factors (high temperature, high humidity, open, 30 days)

In the case of `CC(C)(C#Cc1nc(C(Cc2cc(F)cc(F)c2)NC(=O)Cn2nc(C(F)(F)F)c3c2C(F)(F)C2CC32)c(-c2ccc(Cl)c3c([N-]S(C)(=O)=O)nn(CC(F)(F)F)c23)c2c1CCC2)S(C)(=O)=O.[Na+]` (stereo not shown) [Crystal form II of the sodium salt], the “Hygroscopicity 0.0% RH-95.0% RH” value [1] is reported as 34.16%, the “Hygroscopicity 20.0% RH-80.0% RH” value [1] is reported as 11.61% and the Crystal form [1] is reported as “Unchanged”. The Purity % ([2]; 4° C., 1 month) was 97.83%, the Purity % ([2]; 4° C., 2 months) was 97.83% and the Purity % ([2]; 4° C., 3 months) was 97.79%. It also gave a Purity % ([2]; 4° C., 6 months) of 97.77%, a Purity % ([2]; 4° C., Start) of 97.76% and a Purity % ([2]; 25° C., 60% RH, 1 month) of 97.82%. It also gave a Purity % ([2]; 25° C., 60% RH, 2 months) of 97.82%, a Purity % ([2]; 25° C., 60% RH, 3 months) of 97.86% and a Purity % ([2]; 25° C., 60% RH, 6 months) of 97.79%. The Purity % ([2]; 25° C., 60% RH, Start) was 97.76%, the Purity % ([2]; 40° C., 75% RH, 1 month) was 97.81% and the Purity % ([2]; 40° C., 75% RH, 2 months) was 97.80%. It also gave a Purity % ([2]; 40° C., 75% RH, 3 months) of 97.83%, a Purity % ([2]; 40° C., 75% RH, 6 months) of 97.76% and a Purity % ([2]; 40° C., 75% RH, Start) of 97.76%. For the same compound, the “physical and chemical stability (conclusion)” value ([2]; long-term accelerated stability conditions for 6 months) was “good physical and chemical stability”, the “physical and chemical stability (conclusion)” value ([3]; 40° C., 60° C., 75% RH and 92.5% RH) was “good physical and chemical stability” and the “Color, properties” value ([3]; 40° C., 5 days) was “White solid”. The Crystal form ([3]; 40° C., 5 days) was “Unchanged”, the Purity % ([3]; 40° C., 5 days, listed as II-crystal form of the sodium salt) was 97.88% and the “Color, properties” value ([3]; 40° C., 10 days) was “White solid”. For the same compound, the Crystal form ([3]; 40° C., 10 days) was “Unchanged”, the Purity % ([3]; 40° C., 10 days, listed as II-crystal form of the sodium salt) was 97.83% and the “Color, properties” value ([3]; 40° C., 30 days) was “White solid”. The Crystal form ([3]; 40° C., 30 days) was “Unchanged”, the Purity % ([3]; 40° C., 30 days, listed as II-crystal form of the sodium salt) was 97.88% and the “Color, properties” value ([3]; 60° C., 5 days) was “White solid”. The Crystal form ([3]; 60° C., 5 days) was “Unchanged”, the Purity % ([3]; 60° C., 5 days, listed as II-crystal form of the sodium salt) was 97.86% and the “Color, properties” value ([3]; 60° C., 10 days) was “White solid”. The Crystal form ([3]; 60° C., 10 days) was “Unchanged”, the Purity % ([3]; 60° C., 10 days, listed as II-crystal form of the sodium salt) was 97.88% and the “Color, properties” value ([3]; 60° C., 30 days) was “White solid”. For the same compound, the Crystal form ([3]; 60° C., 30 days) was “Unchanged”, the Purity % ([3]; 60° C., 30 days, listed as II-crystal form of the sodium salt) was 97.90% and the “Color, properties” value ([3]; 75% RH, 5 days) was “White solid”. For the same compound, the Crystal form ([3]; 75% RH, 5 days) was “Unchanged”, the Purity % ([3]; 75% RH, 5 days, listed as II-crystal form of the sodium salt) was 97.84% and the “Color, properties” value ([3]; 75% RH, 10 days) was “White solid”. The Crystal form ([3]; 75% RH, 10 days) was “Unchanged”, the Purity % ([3]; 75% RH, 10 days, listed as II-crystal form of the sodium salt) was 97.84% and the “Color, properties” value ([3]; 75% RH, 30 days) was “White solid”. For the same compound, the Crystal form ([3]; 75% RH, 30 days) was “Unchanged”, the Purity % ([3]; 75% RH, 30 days, listed as II-crystal form of the sodium salt) was 97.82% and the “Color, properties” value ([3]; 92.5% RH, 5 days) was “White solid”. For the same compound, the Crystal form ([3]; 92.5% RH, 5 days) was “Unchanged”, the Purity % ([3]; 92.5% RH, 5 days, listed as II-crystal form of the sodium salt) was 97.84% and the “Color, properties” value ([3]; 92.5% RH, 10 days) was “White solid”. The Crystal form ([3]; 92.5% RH, 10 days) was “Unchanged”, the Purity % ([3]; 92.5% RH, 10 days, listed as II-crystal form of the sodium salt) was 97.85% and the “Color, properties” value ([3]; 92.5% RH, 30 days) was “White solid”. The Crystal form ([3]; 92.5% RH, 30 days) was “Unchanged”, the Purity % ([3]; 92.5% RH, 30 days, listed as II-crystal form of the sodium salt) was 97.82% and the “Color, properties” value ([3]; Start, 0 days) was “White solid”. The Purity % ([3]; Start, 0 days) was 97.76%.
With `CC(C)(C#Cc1nc(C(Cc2cc(F)cc(F)c2)NC(=O)Cn2nc(C(F)(F)F)c3c2C(F)(F)C2CC32)c(-c2ccc(Cl)c3c([N-]S(C)(=O)=O)nn(CC(F)(F)F)c23)c2c1CCC2)S(C)(=O)=O.[Na+]` (stereo not shown) [Crystal form IV of the sodium salt] the “Hygroscopicity 0.0% RH-95.0% RH” value [1] was 1.03%, the “Hygroscopicity 20.0% RH-80.0% RH” value [1] was 0.45% and the Crystal form [1] was “changed”.
